{"source": "patent US10688084B2", "about": "(priority 2016, dated 2020)", "key": {"[1]": {"settings": "cited from earlier work"}, "cyclooxygenase (COX)": {"test_system": "cyclooxygenase (COX)", "test": "COX activity assay (fluorometric kit, peroxidase activity) with skin fibroblast (HSF) cell lysate", "assay_type": "biochemical", "settings": "fibroblast cell lysate, 1.25 to 20 μM in the well"}, "Wistar rats [2]": {"test_system": "Wistar rats", "assay_type": "in vivo", "settings": "for Analgesic effect, total/analgesic effect / Paw volume 0 hours / Paw volume 3 hours / Analgesic effect, %: 15 mg/kg", "description": "In the study of analgesic properties of the formula I compound, were taken female and male Wistar rats aged 6-7 weeks with a body mass of 180-220 g. The number of animals in each group was 10.\n[…] inflammation was modeled in rats by subplantar administration of 0.1 ml of a 1% solution of carrageenin (a sulfated polysaccharide from Irish sea moss) into the right hind paw. The substance was administered intragastrically using a gastric probe.\nInflammatory hyperalgesia (increased pain sensitivity of inflamed tissues in rats) was caused by carrageenin and was assessed by decrease of the pain sensitivity threshold—PST (by PST difference) to mechanical irritation (squeezing) of the paw tissue of the animal before the introduction of carrageenin and 3 hours after it. The measurement was performed on the inflamed paw. Used analgesimeter Ugo Basile S.R.L. (Italy) provides a gradual increased afterload on the rat's inflamed paw until a pain reaction appears (assessed by squeaking of animal or withdrawing the paw). The analyte was administered 2 h after carrageenin administration. […] An increase in the pain response threshold under the influence of the substances under study was expressed in an increase in the force of compression of the limb and characterized the intensity of the analgesic effect of the preparation. After the experiment, animals were euthanized by carbon dioxide inhalation method.\nThe introduction to rats was carried out in the amount of no more than 1 ml/100 g. The concentration of the resulting solution was 5 mg/ml.\n(§1) To prepare a dose of 20 mg/kg, 40 ml of solution with a concentration of 5 mg/ml (50 mg/kg) were taken, transferred to a 100 ml measuring flask with accuracy class A, adjusted to 100 ml with 0.5% water solution of Tween-80 and the suspension was dispersed to a homogeneous consistency using a dispersant.\nTo prepare a dose of 10 mg/kg, 20 ml of solution with a concentration of 5 mg/ml (50 mg/kg) were taken, transferred to a 100 ml measuring flask with accuracy class A, adjusted to 100 ml with 0.5% aqueous solution of Tween-80 and the suspension was stirred to a homogeneous consistency with a magnetic stirrer MR Hei-Standard (Heidolph, Germany).\nas §1, with “5” for “20”, “[…]” for “40”, “stirred” for “dispersed”, “with” for “using”, “magnetic stirrer.” for “dispersant.”"}, "Wistar rats [3]": {"test_system": "Wistar rats", "assay_type": "in vivo", "settings": "for Δ t after 2 hours, (M ± SD) / Δ t after 3 hours, (M ± SD) / Δ t after 4 hours, (M ± SD) / Δ t after 5 hours, (M ± SD) / Δ t after 6 hours, (M ± SD) / Δ t after 7 hours, (M ± SD): 15 mg/kg", "description": "In the study of antipyretic properties of the formula I compound, were taken female and male Wistar rats aged 6-7 weeks, with a body mass of 180-220 g. The number of animals in each group was 10.\nThe febrile reaction was caused by subcutaneous administration of a 20% suspension of baking yeast. The rectal temperature was measured with an electrothermometer prior to the introduction of yeast and 18 hours after it (the difference of these measurements is the estimated hyperthermic reaction). The preparation was administered to animals at the peak of hyperthermia once (after 18 hours). The antipyretic effect was evaluated by hyperthermia decrease 2 hours after the injection of the test substance, and then the effect dynamics was recorded at hourly intervals for 7 hours.\nThe introduction to rats was carried out in the amount of no more than 1 ml/100 g. The concentration of the resulting solution was 7.5 mg/ml.\nThe difference in temperature after preparation administration and after 18 hours of induction with yeast was taken as the parameter of hyperthermia decrease.\nAnimals were observed individually after administration throughout the study. […] Wilcoxon nonparametric criterion was used for statistical comparison of experimental groups. Differences were determined at the 0.05 level of significance. The statistical analysis was carried out using the R-studio program."}, "acute inflammation": {"test_system": "acute inflammation", "settings": "literature value; cited from earlier work"}, "[4]": {"settings": "literature value; cited from earlier work"}, "Wistar rats [5]": {"test_system": "Wistar rats", "settings": "prototype of RU 2513089; cited from earlier work"}, "[6]": {"test_system": "subacute (formalin) edema", "settings": "prototype of RU 2513089; cited from earlier work"}}, "note": "Where two headings read alike, the source gives them in different places.", "data": [{"compound": "2-[(2,6-dichlorophenyl) amino] benzene acetic acid [Diclofenac sodium]", "values": [{"measurement": "UD50", "setting": "[1]; literature value", "value": 48, "unit": "mg/kg"}]}, {"compound": "COc1ccc2cc([C@H](C)C(=O)O)ccc2c1", "note": "[Naproxen, (S)-6-methoxy-α-methyl-2-naphthalenacetic acid, reference compound]", "values": [{"measurement": "IC50", "setting": "cyclooxygenase (COX)", "value": 9.56, "unit": "µM"}, {"measurement": "Analgesic effect, total/analgesic effect", "setting": "Wistar rats [2]; females", "value": "10/7"}, {"measurement": "Paw volume 0 hours", "setting": "Wistar rats [2]; females", "value": "5.0 ± 6.2"}, {"measurement": "Paw volume 3 hours", "setting": "Wistar rats [2]; females", "value": "5.0 ± 3.2"}, {"measurement": "Analgesic effect, %", "setting": "Wistar rats [2]; females, control = 100.0", "value": "195.3 ± 125.3", "unit": "%"}, {"measurement": "Dose at which a pronounced anesthetic effect is exhibited", "setting": "Wistar rats [2]; intragastric", "value": 15, "unit": "mg/kg"}, {"measurement": "Analgesic effect, total/analgesic effect", "setting": "Wistar rats [2]; males", "value": "10/7"}, {"measurement": "Analgesic effect, %", "setting": "Wistar rats [2]; rat, in vivo", "value": "234.5 ± 160.2", "unit": "%"}, {"measurement": "Paw volume 0 hours", "setting": "Wistar rats [2]; rat, in vivo", "value": "5.0 ± 2.9"}, {"measurement": "Paw volume 3 hours", "setting": "Wistar rats [2]; rat, in vivo", "value": "6.7 ± 4.6"}, {"measurement": "Level of temperature decrease", "setting": "Wistar rats [3]; 15 mg/kg (or 65 μmol/kg)", "value": "0.74-1.6 °C"}, {"measurement": "Δ t after 2 hours, (M ± SD)", "setting": "Wistar rats [3]; females", "value": 1.64}, {"measurement": "Δ t after 3 hours, (M ± SD)", "setting": "Wistar rats [3]; females", "value": 1.35}, {"measurement": "Δ t after 4 hours, (M ± SD)", "setting": "Wistar rats [3]; females", "value": 1.58}, {"measurement": "Δ t after 5 hours, (M ± SD)", "setting": "Wistar rats [3]; females", "value": 1.21}, {"measurement": "Δ t after 6 hours, (M ± SD)", "setting": "Wistar rats [3]; females", "value": 1.09}, {"measurement": "Δ t after 7 hours, (M ± SD)", "setting": "Wistar rats [3]; females", "value": 0.74}, {"measurement": "Δ t after 2 hours, (M ± SD)", "setting": "Wistar rats [3]; males", "value": 1.39}, {"measurement": "Δ t after 3 hours, (M ± SD)", "setting": "Wistar rats [3]; males", "value": 1.49}, {"measurement": "Δ t after 4 hours, (M ± SD)", "setting": "Wistar rats [3]; males", "value": 1.6}, {"measurement": "Δ t after 5 hours, (M ± SD)", "setting": "Wistar rats [3]; males", "value": 1.51}, {"measurement": "Δ t after 6 hours, (M ± SD)", "setting": "Wistar rats [3]; males", "value": 1.53}, {"measurement": "Δ t after 7 hours, (M ± SD)", "setting": "Wistar rats [3]; males", "value": 1.44}, {"measurement": "ED50 acute inflammation", "setting": "acute inflammation", "value": 15, "unit": "mg/kg"}, {"measurement": "UD50", "setting": "[1]; literature value", "value": 49, "unit": "mg/kg"}]}, {"compound": "CCCCC1C(=O)N(c2ccccc2)N(c2ccccc2)C1=O", "note": "[Phenylbutazone]", "values": [{"measurement": "UD50", "setting": "[1]; literature value", "value": 120, "unit": "mg/kg"}]}, {"compound": "COc1ccc2c(c1)c(CC(=O)O)c(C)n2C(=O)c1ccc(Cl)cc1", "note": "[Indomethacin, 1-(4-chlorobenzoyl)-5-methoxy-2-methyl-1H-indol-3-acetic acid]", "values": [{"measurement": "ED50 acute inflammation", "setting": "acute inflammation", "value": 10, "unit": "mg/kg"}, {"measurement": "UD50", "setting": "[1]; literature value", "value": 10, "unit": "mg/kg"}, {"measurement": "UD50/ED50 (safety index)", "setting": "[1]; literature value", "value": 1}, {"measurement": "LD50", "setting": "[4]", "value": 47, "unit": "mg/kg"}, {"measurement": "LD50/ED50 (therapeutic index)", "setting": "[4]", "value": 4.7}]}, {"compound": "CN1C(C(=O)Nc2ccccn2)=C(O)c2ccccc2S1(=O)=O", "note": "[Pyroxicam]", "values": [{"measurement": "ED50 acute inflammation", "setting": "acute inflammation", "value": 20, "unit": "mg/kg"}, {"measurement": "UD50", "setting": "[1]; in vivo", "value": 36, "unit": "mg/kg"}, {"measurement": "UD50/ED50 (safety index)", "setting": "[1]; literature value", "value": 1.8}, {"measurement": "LD50", "setting": "[4]", "value": 290, "unit": "mg/kg"}, {"measurement": "LD50/ED50 (therapeutic index)", "setting": "[4]", "value": 15}]}, {"compound": "CC(C)Cc1ccc(C(C)C(=O)O)cc1", "note": "(racemic) [Ibuprofen, (RS)-2-(4-isobutylphenyl) propionic acid]", "values": [{"measurement": "ED50 acute inflammation", "setting": "acute inflammation", "value": 48, "unit": "mg/kg"}, {"measurement": "UD50", "setting": "[1]; literature value", "value": 310, "unit": "mg/kg"}, {"measurement": "LD50", "setting": "[4]", "value": 750, "unit": "mg/kg"}]}, {"compound": "COc1ccc2cc([C@H](C)C(=O)OCc3cnc(C)c(OC(=O)[C@@H](C)c4ccc5cc(OC)ccc5c4)c3COC(=O)[C@@H](C)c3ccc4cc(OC)ccc4c3)ccc2c1", "note": "[(2S,2'S)-(5-((S)-2-(6-methoxinaft-2-yl)propanoiloxy)-6-methylpyridine-3,4-diyl) bis (methylene) bis (2-(6-methoxynaphth-2-yl) propanoate)]", "values": [{"measurement": "Efficacy on the model of acute (carrageenin) edema in vivo", "setting": "Wistar rats [5]", "value": "not effective enough"}, {"measurement": "Efficacy on the model of subacute (formalin) edema in vivo", "setting": "[6]", "value": "pronounced anti-inflammatory effect"}]}, {"compound": "CC(=O)Oc1ccccc1C(=O)O", "note": "[Acetylsalicylic acid]", "values": [{"measurement": "ED50 acute inflammation", "setting": "acute inflammation", "value": 98, "unit": "mg/kg"}, {"measurement": "UD50", "setting": "[1]; literature value", "value": 240, "unit": "mg/kg"}, {"measurement": "UD50/ED50 (safety index)", "setting": "[1]; literature value", "value": 2.45}, {"measurement": "LD50", "setting": "[4]", "value": 1600, "unit": "mg/kg"}, {"measurement": "LD50/ED50 (therapeutic index)", "setting": "[4]", "value": 16}]}]}
